Patent publication US12485114B2, “Materials and methods useful to induce cancer cell death via methuosis or autophagy or a combination thereof” (The University of Toledo, priority 2017, dated 2025)

Key:
[1] = tested on: Transcription factor EB (TFEB)— associated lysosomal and autophagy genes; assay: RNA-seq analysis of TFEB-associated lysosomal and autophagy genes; assay type: cell-based; settings: HCT-116, 10 μM, 6 h
Excerpt: Autophagosome and lysosomal homeostasis is governed by transcription factor EB (TFEB)—mTOR signaling pathways (TFEB-mTOR pathway). […] (FIG. 51A & FIG. 51B & FIG. 51C).

[2] = target: T1, phosphoinositide 5-kinase (PIKfyve) (Homo sapiens, UniProt Q9Y2I7); assay: Kinome screening (DiscoverX) against 468 kinases; assay type: binding
T1 construct: purchased DiscoverX (KINOMEscan)
Procedure: (§1) FIG. 49A: Image showing the effect of Image was generated using TREEspot™ Software Tool and reprinted with permission from KINOMEscan®, a division of DiscoveRx Corporation, @ DISCOVERX CORPORATION 2010. Selectivity Score or S-score is a quantitative measure of compound selectivity. It was calculated by dividing the number of kinases that BAPT-27 bind to by the total number of distinct kinases tested, excluding mutant variants.

ABL1 T315I = target: T2, ABL1 T315I (Homo sapiens, UniProt P00519, T315I); assay: Kinome screening (DiscoverX) against 468 kinases; assay type: binding
T2 construct: purchased DiscoverX (KINOMEscan)
Procedure: as §1

FLT3(D835V) = target: T3, FLT3(D835V) (Homo sapiens, UniProt P36888, D835V); assay: Kinome screening (DiscoverX) against 468 kinases; assay type: binding
T3 construct: purchased DiscoverX (KINOMEscan)
Procedure: as §1

FLT3(ITD, D835V) = assay: Kinome screening (DiscoverX) against 468 kinases; assay type: binding
Procedure: as §1

JNK2 = target: T4, JNK2 (Homo sapiens, UniProt P45984); assay: Kinome screening (DiscoverX) against 468 kinases; assay type: binding
T4 construct: purchased DiscoverX (KINOMEscan)
Procedure: as §1

DYRK1A = target: T5, DYRK1A (Homo sapiens, UniProt Q13627); assay: Kinome screening (DiscoverX) against 468 kinases; assay type: binding
T5 construct: purchased DiscoverX (KINOMEscan)
Procedure: as §1

JNK1 = target: T6, JNK1 (Homo sapiens, UniProt P45983); assay: Kinome screening (DiscoverX) against 468 kinases; assay type: binding
T6 construct: purchased DiscoverX (KINOMEscan)
Procedure: as §1

JNK3 = target: T7, JNK3 (Homo sapiens, UniProt P53779); assay: Kinome screening (DiscoverX) against 468 kinases; assay type: binding
T7 construct: purchased DiscoverX (KINOMEscan)
Procedure: as §1

[3] = tested on: normal epithelial colon cells (CRL-1459); assay: Morphological assessment of vacuolization in normal cells; assay type: cell-based; settings: CRL-1459 normal cells
Excerpt: The methuophagy inducing activities of BAPT-27 were also prominent in different colon cancer cell lines with different genetic profiles. […] (FIG. 42). However, the vacuoles formation was not prominent in normal epithelial colon cells (CRL-1459). (FIG. 42).

cancer cells [4] = assay: Loss of viability and non-apoptotic cell death assessment (nuclei, electron microscopy, annexin, z-VAD-fmk); assay type: cell-based
Procedure: Cells treated with BAPT-27 lose their viability within 72 h. […] Through electron microscopy there were clearly no signs of apoptosis (i.e., cell shrinkage, nuclear condensation, blebbing) seen.

C57BL/6 mice = assay: Safety studies in C57BL/6 mice; assay type: in vivo
Procedure: FIG. 53A: C57BL/6J mice (8-10 weeks old) were treated intraperitoneally with indicated concentration of BAPT-27 or vehicle (saline) for 14 days. At the end of 14 days, blood was collected in heparin-coated tubes for blood chemistry analysis using abaxis veterinary chemistry analyzer (VETSCAN vs2).
FIG. 53B: Representative immunohistochemical slides are shown for kidney, liver, heart and brain for C57BL/6mice treated intraperitoneally with vehicle (saline) or BAPT-27 at 86.6 mg/kg. The whole tissue section and 10× magnification slides are shown.

β-tubulin = β-tubulin expression and microtubules dynamics; assay type: cell-based; set-up: β-tubulin expression levels: dose or concentration left out as unconfirmed
lysosomes = assay: Lysotracker red dye accumulation; assay type: cell-based
[5] = tested on: NSCLC cells resistant to apoptosis; assay: Activity in apoptosis-resistant NSCLC cells; assay type: cell-based
Excerpt: (§2) (FIG. 46). NSCLC cells resistant to apoptosis are also sensitive to the activities of BAPT-27.

[6] = tested on: colon, pancreatic, ovarian, lung, and prostate cancer cell lines; assay: Vacuole accumulation in cancer cell lines; assay type: cell-based
Excerpt: The vacuoles are originated from macropinocytosomes as confirmed by extracellular fluid phase tracers. Vacuolization has been described previously as methuosis. However, the vacuoles induced here combine the characteristics of methuosis, autophagy, enhanced lysosomal activity, and other distinct characteristics.

[7] = tested on: HCT116 colon cancer cells; assay: Colony formation assay; assay type: cell-based
Procedure: The cytotoxic efficacy of BAPT-27 was also confirmed by colony formation assay. Colony formation assay was used to determine the long-term capacities of the compound to inhibit cell proliferation and viability. The cells were treated for 2 or 3 days and allowed to grow in compound free medium for up to two weeks. […] It was also observed that a higher concentration of BAPT-27 was needed to reduce the colony formation at 48 h compared to longer treatment (72 h). (FIG. 28A).
The cells were treated for 2 or 3 days and allowed to grow in compound free medium for up to two weeks. […] The number of colonies formed/concentration at each time point is shown in the bar graph in FIG. 28B.

cancer cells [8] = assay: Vacuoles formation and cell death with necroptosis inhibitor necrostatin-1; assay type: cell-based; settings: necrostatin-1 up to 30 μM
Procedure: BAPT-27 induces a type of death that is also independent of necrosis or necroptosis. The vacuoles formation and cell death was not inhibited by the addition of necrostatin-1, a necroptosis inhibitor, even at high concentrations (up to 30 μM).
BAPT-27 induces a type of death that is independent of necrosis or necroptosis. The vacuoles formation and cell death was not inhibited by the addition of necrostatin-1, a necroptosis inhibitor, even at high concentrations (up to 30 μM). (FIG. 44).

[9] = tested on: resistant lung cancer cell lines H460-MX20; assay: Reversal of multidrug resistance, combined with mitoxantrone; assay type: cell-based
Excerpt: (§3) The cells became sensitive to the cytotoxicity of mitoxantrone when combined with BAPT-27. Further, BAPT-27 induced death in apoptosis resistant cell lines including colon cancer cell lines that are missing important pro-apoptotic genes Bax and Bak using well established models (HCT116, HCT116 Bax −/−, HCT116 Bak −/−, HCT116 Bax/Bak−/−). Accordingly, BAPT-27 represents a family of compounds that induce cell death in sensitive and resistant cancers, as well as those cancers that are refractory to death by conventional apoptosis inducing anticancer agents.
as §2

[10] = tested on: resistant colon cancer cell lines S1M180; assay: as above; assay type: cell-based
Excerpt: as §3, §2

[11] = cells became sensitive to mitoxantrone in combination

T1 sequence (Q9Y2I7 whole entry): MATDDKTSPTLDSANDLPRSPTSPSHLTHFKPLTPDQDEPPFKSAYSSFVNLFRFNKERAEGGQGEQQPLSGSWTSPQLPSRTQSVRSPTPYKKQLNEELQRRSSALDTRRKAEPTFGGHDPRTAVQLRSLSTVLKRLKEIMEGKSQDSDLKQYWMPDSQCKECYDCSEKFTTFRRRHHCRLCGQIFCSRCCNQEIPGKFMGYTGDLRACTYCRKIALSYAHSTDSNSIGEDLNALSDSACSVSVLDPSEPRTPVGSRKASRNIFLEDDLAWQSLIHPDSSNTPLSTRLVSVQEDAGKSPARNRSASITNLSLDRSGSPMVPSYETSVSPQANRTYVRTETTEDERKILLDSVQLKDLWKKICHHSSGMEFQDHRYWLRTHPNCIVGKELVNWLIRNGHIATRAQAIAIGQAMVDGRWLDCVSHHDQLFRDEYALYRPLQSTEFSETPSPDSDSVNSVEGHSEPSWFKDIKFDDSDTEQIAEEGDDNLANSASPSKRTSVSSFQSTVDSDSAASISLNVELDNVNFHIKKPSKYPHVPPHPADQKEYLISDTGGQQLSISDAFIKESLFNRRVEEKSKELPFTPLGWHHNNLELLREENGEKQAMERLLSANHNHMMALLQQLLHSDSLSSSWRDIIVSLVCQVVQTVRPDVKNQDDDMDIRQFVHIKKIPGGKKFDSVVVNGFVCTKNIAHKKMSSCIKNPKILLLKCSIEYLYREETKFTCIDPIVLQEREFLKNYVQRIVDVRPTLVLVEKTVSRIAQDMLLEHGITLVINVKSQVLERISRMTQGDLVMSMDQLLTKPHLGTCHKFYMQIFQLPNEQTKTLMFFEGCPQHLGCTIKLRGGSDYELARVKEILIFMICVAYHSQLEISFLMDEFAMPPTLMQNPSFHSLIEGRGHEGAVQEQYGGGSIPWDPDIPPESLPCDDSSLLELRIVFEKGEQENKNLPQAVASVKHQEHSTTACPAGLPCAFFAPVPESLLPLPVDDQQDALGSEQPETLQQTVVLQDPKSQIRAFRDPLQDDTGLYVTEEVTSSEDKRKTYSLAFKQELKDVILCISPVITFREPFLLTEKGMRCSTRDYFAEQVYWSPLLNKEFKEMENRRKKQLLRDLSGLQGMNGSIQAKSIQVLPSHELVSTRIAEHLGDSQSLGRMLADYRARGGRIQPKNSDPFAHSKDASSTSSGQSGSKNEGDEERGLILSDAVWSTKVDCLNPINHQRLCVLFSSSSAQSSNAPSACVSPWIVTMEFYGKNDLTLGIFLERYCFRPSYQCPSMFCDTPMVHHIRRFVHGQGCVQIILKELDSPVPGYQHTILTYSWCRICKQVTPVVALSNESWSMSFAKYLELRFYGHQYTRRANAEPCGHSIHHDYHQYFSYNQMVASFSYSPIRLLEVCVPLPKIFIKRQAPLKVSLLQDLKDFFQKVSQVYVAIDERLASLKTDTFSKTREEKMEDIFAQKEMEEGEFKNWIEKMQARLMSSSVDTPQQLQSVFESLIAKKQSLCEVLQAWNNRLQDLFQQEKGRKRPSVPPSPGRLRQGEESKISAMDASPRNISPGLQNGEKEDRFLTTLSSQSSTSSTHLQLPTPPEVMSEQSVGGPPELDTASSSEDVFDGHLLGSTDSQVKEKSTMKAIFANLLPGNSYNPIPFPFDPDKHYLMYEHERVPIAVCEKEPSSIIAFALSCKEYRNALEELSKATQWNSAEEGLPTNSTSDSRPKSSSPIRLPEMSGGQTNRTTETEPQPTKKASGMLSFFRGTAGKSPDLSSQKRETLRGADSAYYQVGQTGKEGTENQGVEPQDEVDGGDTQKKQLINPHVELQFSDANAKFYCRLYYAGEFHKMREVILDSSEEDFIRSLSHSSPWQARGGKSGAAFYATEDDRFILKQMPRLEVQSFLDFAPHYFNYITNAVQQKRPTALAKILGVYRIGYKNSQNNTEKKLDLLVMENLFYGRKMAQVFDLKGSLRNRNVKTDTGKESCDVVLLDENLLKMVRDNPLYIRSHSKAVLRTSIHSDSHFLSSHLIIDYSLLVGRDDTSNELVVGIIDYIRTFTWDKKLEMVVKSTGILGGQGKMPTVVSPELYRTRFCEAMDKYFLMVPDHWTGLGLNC
T4 sequence (P45984 whole entry): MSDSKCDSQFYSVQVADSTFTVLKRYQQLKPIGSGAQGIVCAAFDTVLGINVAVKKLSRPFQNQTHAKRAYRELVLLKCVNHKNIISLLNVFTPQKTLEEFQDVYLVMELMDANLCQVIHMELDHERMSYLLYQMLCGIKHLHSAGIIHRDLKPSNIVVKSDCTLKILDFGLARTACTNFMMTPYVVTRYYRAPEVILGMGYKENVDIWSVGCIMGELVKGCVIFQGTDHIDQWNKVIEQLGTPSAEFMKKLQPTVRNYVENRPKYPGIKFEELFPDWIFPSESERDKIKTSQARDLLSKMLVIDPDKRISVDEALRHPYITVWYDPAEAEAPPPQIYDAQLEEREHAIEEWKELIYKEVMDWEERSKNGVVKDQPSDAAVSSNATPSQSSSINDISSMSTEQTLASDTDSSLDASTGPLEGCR
T7 sequence (P53779 whole entry): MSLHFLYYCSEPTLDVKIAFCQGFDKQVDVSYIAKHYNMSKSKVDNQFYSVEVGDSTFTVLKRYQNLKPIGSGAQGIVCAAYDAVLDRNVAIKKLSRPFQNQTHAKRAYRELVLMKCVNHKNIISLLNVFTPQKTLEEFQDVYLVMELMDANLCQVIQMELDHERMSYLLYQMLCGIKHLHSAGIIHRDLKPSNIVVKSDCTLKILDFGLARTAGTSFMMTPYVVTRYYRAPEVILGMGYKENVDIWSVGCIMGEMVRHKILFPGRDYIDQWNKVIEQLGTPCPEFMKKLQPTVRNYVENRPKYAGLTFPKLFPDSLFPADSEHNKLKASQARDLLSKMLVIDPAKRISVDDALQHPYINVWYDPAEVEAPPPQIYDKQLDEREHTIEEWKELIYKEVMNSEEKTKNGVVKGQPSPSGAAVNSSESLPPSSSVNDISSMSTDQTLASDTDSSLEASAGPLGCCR
T6 sequence (P45983 whole entry): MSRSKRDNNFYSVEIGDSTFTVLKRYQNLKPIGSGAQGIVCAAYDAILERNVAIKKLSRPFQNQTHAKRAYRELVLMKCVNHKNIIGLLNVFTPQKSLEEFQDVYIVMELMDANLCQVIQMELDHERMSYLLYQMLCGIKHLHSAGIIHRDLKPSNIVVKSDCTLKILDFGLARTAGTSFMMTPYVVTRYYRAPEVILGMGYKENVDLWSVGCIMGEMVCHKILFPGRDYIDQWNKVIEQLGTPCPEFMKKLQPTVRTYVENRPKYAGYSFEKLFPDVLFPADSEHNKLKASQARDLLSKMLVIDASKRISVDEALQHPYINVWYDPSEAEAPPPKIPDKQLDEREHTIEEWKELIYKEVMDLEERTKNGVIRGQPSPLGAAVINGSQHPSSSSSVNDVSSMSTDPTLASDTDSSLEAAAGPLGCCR

In the case of `Sc1nnc(-c2ccncc2)n1/N=C/c1c[nH]c2ccccc12` [BAPT-27, 4-(((1H-Indol-3-Yl)Methylene)Amino)-5-(Pyridin-4-Yl)-4H-1,2,4-Triazole-3-Thiol], the “expression of TFEB-associated lysosomal and autophagy genes” value [1] is reported as “upregulated”, the inhibitory potency [2] is reported as “shows inhibitory potency” and the inhibitory potency (ABL1 T315I) is reported as “shows inhibitory potency”. For the same compound, the inhibitory potency (FLT3(D835V)) was “shows inhibitory potency”, the inhibitory potency (FLT3(ITD, D835V)) was “shows inhibitory potency” and the inhibitory potency (JNK2) was “shows inhibitory potency”. The inhibitory potency (DYRK1A) was “shows inhibitory potency”, the inhibitory potency (JNK1) was “shows inhibitory potency” and the inhibitory potency (JNK3) was “shows inhibitory potency”. The vacuoles formation [3] was “not prominent”, the “alteration in the intrinsic apoptotic pathways (proapoptotic and antiapoptotic proteins)” value (cancer cells [4]) was “no alteration” and the annexin fluorescence (cancer cells [4]) was “not changed”. The “apoptotic changes of nuclei (chromatin condensation or DNA fragmentation)” value (cancer cells [4]) was “no apoptotic changes”, the “protection from death by pan-caspase inhibitor z-VAD-fmk” value (cancer cells [4]) was “did not protect the cells from death” and the “time to loss of viability” value (cancer cells [4]; cells treated with BAPT-27) was ≤ 72 h. For the same compound, the “cells observed to have died through apoptosis” value (cancer cells [4]; electron microscopy, very high concentration) was “one in 100 cells”, the “block of vacuoles formation by z-VAD” value (cancer cells [4]; z-VAD 100 μM, BAPT-27 10 μM, 24 h and 72 hr) was “does not block” and the safety in mice (C57BL/6 mice; 86.6 mg/kg given intraperitoneally) was “safe”. For the same compound, the “behavioral or phenotypic toxicity” value (C57BL/6 mice; up to 14 days) was “no behavioral or phenotypic toxicity”, the β-tubulin expression levels (β-tubulin) was “no significant change” and the microtubules dynamics (β-tubulin; 24 h) was “significant disturbance”. The “lysotracker red dye inside the formed vacuoles” value (lysosomes) was “significant accumulation”, the “sensitivity to the activities of BAPT-27” value [5] was “sensitive” and the “accumulation of fluid filled-cytoplasmic vacuoles” value [6] was “induces the rapid accumulation of extensive fluid filled-cytoplasmic vacuoles”. The “colonies number and size” value ([7]; HCT116, 48 h and 72 h, especially after 72 h treatment) was “significant inhibition in the colonies number and size”, the colony formation ([7]; treated two and three days, then compound free medium up to two weeks) was “significantly inhibited colony formation” and the “inhibition of vacuoles formation and cell death by necrostatin-1” value (cancer cells [8]) was “not inhibited”. The “delivery and sensitivity of doxorubicin and mitoxantrone” value [9] was “increase the delivery and enhanced sensitivity”, the “reversal of multidrug resistance” value [9, 11] was “reversed multidrug resistance” and the “delivery and sensitivity of doxorubicin and mitoxantrone” value [10] was “increase the delivery and enhanced sensitivity”. For the same compound, the “reversal of multidrug resistance” value [10, 11] was “reversed multidrug resistance”.
